The record followed here is a melting point compilation (Tetko et al.; mined from patent text by program, amines drawn as free bases though some values may be those of a salt).

Residues, ends and D or L forms follow the SMILES beside them. *: point of attachment. Boc = CC(C)(C)OC(=O)*; Bn = c1ccc(C*)cc1 Where only a bound is given, the exact number is not on record here.

A word on the melting point: it is the temperature, or range, at which the solid turns liquid. With `CC(C)C1NS(=O)(=O)N(CCl)C1=O` (stereo not given), the melting point lay in the range of 71 to 72 °C.
Turning to `CC(C)CC(CO)NC(=O)OCC1c2ccccc2-c2ccccc21` (stereo not given), the melting point was in the range of 131 to 133 °C.
As for `CC(=NN(C)C(=O)c1ccccc1)c1ccncc1`, the figure is 128 °C; as for `C=Cn1cc(C(N)=O)c([N+](=O)[O-])n1`, 150 to 152 °C.
As for `CC(=O)N1CCC(c2nc(N)nc3ccccc23)CC1`, the figure is 184 to 186 °C; as for `CC(=O)c1cccnc1CN1C(=O)C(NC(=O)Nc2cccc(C)c2)N=C(c2ccccc2F)c2ccccc21` (racemic), 218 to 222 °C; as for `O=C(NO)c1cc2c(Oc3ccc(Cl)cc3)cncc2s1`, 145 °C.
As for `CC(C)COc1c(-c2ccc(S(N)(=O)=O)cc2)cnn(-c2ccc(F)c(F)c2)c1=O`, the figure is 169 to 171 °C; as for `CC(NC(=O)OCc1ccccc1)P(C)(=O)OCc1ccccc1` (stereo not given), 108 to 110 °C.
`CC(NC(=O)OCc1ccccc1)C(=O)N1CC(=O)N(CC(N)=O)C1(C)C` (stereo not given) returned a melting point of 206 to 210 °C.
The result for `O=C(O)c1cn(Cc2nccs2)c2cc(N3CCN(c4ccncc4)CC3)ccc2c1=O` reads 273 to 276 °C.
In turn, `c1ccc2c(c1)C1CC2(CC2CN(CC3CC3)CCO2)c2ccccc21` (stereo not given) showed a melting point of 88 to 90 °C.
As for `CC(C)(C)c1cnc(C(=O)Nc2cc(-c3cc(NC4CCCNC4)c(=O)[nH]n3)ccc2F)cn1` (stereo not given), the figure is 140 to 141 °C.
The result for `COc1ccc(-c2cc(C)cn2-c2ccc(S(N)(=O)=O)cc2)cc1C` reads 149 to 151 °C.
As for `C1=Nc2cc3c(cc2=C1)N=c1ccccc1=3`, the figure is 210 to 211 °C; as for `O=C(O)CN1C(=O)C(=Cc2ccc(OCCc3ccc(F)cc3)c(OCc3ccccc3)c2)SC1=S`, 221 °C; as for `CCN(CC)C(=O)COc1cc(-c2ccccc2)cc2ccccc12`, 82 °C.
With `CC(C)Cn1c(CNC(=O)OC(C)(C)C)c(-c2ccccc2)c2cc(/C=C/C(=O)O)ccc2c1=O`, the melting point lay within 172 to 173 °C.
`CNc1c2c(nc3ccccc13)CCCC2=O` yielded a melting point of 116 to 117 °C.
As for `CN(C)CCn1c(=O)c2c3oc4ccccc4oc3c3[nH]c4ccc(O)cc4c3c2c1=O`, the figure is above 360 °C; as for `CC(C)C(C)(C(N)=O)N1C(=O)c2ccccc2C1=O` (stereo not given), 118 to 119 °C.
With `COc1cc(C)c(C)c2c1CCC2=O`, the melting point lay in the range of 127 to 128 °C.
The result for `CC(C)c1cc(O)cc(C(C)C)c1NC(=O)CN1CCN(CCCSc2nc3ccccc3o2)CC1` reads 201 to 203 °C; that for `CC(=O)C(=O)NCc1nnc(C)n1-c1cc(Cl)cc(C(=O)c2ccccc2Cl)c1`, 178 to 180 °C; that for `c1cc(OCc2ccc3ccccc3n2)cc(C2SCCCS2)c1`, 92 to 93 °C.
As for `CCc1ccc(OCc2cccc(NC(=O)CCC(=O)OC)c2)cc1OC`, the figure is 69 to 70 °C; as for `Cc1cc(=O)n2c3c(cc(C(O)(C(F)(F)F)C(F)(F)F)cc13)CC2`, 337 to 338 °C; as for `COCCOc1ccc(CCC(=O)NS(=O)(=O)c2ccc(OC)cc2)c(Oc2ncc(C(F)(F)F)cc2Cl)c1`, 118 to 120 °C.
The result for `FC(F)(F)Oc1ccc(-c2cc(-n3ccc(C(F)(F)F)n3)c3ccccc3n2)cc1` reads 108 to 110 °C; that for `Cc1ccc(C(=O)Nc2c(NC(=O)CN3CCN(C)CC3)ccc3c2C(=O)c2ccccc2C3=O)cc1`, 214 to 215 °C; that for `Cc1cccc(C=CC(=O)C=Cc2cccc(C)c2)c1`, 68 to 72 °C.
Regarding `N#CN=C(Nc1cccnc1)NC(NC(=O)c1ccccc1)C(Cl)(Cl)Cl` (stereo not given), the melting point is 133 to 135 °C.
The result for `O=C1NCCN1c1ccc(S(=O)(=O)Nc2cccc(Br)c2)cc1` reads 184 to 185 °C; that for `COc1cc(OC(F)F)nc(N)n1`, 106 to 107 °C.
As for `COc1ccc(C(=O)O)nc1OC1CCCC1`, the figure is 96 to 99 °C; as for `COc1cc(OC)nc(Oc2cccc(Cl)c2C(=O)O)n1`, 123 to 126 °C; as for `NC(=O)c1cc(-c2ccc(Cl)cc2)on1`, 224 to 225 °C.
The result for `COC(=O)C(C(=O)OC)=C(/C=C/Cl)CCl` reads 56 °C; that for `COc1cc(-c2ccccc2C(F)(F)F)c(Cl)cc1C(=O)N1Cc2cccn2Cc2ccccc21`, 208 to 210 °C.
`Cc1c(C(=O)Cl)cccc1[N+](=O)[O-]`: the melting point was 68 to 70 °C.
The result for `C=CCC(C#N)(C#N)Cc1ccc(C#N)cc1` reads 81.9 °C; that for `CCOc1cc(CCl)nc(OCC)n1`, 38 to 39 °C.
The molecule `O=C(O)CCCc1cc2nc(Cl)ccc2n1S(=O)(=O)c1ccc(F)cc1` had a melting point of 180 °C.
As for `CCOC(=O)c1ccccc1CN1C(=O)C(CCOc2ccc(CCNC(=O)OC(C)(C)C)cc2)Oc2ccccc21` (stereo not given), the figure is 103 to 105 °C; as for `COc1ccc(C2CCN(C(=O)/C(=N/O)C(N)=O)CC2)cc1OC1CCCC1`, 109 to 111 °C.
On to `CCn1cc(C(=O)O)c(=O)c2c(F)c(F)c(N3CCOCC3)c(F)c21`, for which the melting point fell in the range of 281 to 283 °C.
As for `Cc1nnc(-c2ccccc2)c2nc(OCc3ncnn3C)c(C3CCC3)n12`, the figure is 160 °C; as for `Cc1ccc([N+](=O)[O-])c(-c2nc(C(F)(F)F)cs2)c1`, 98 to 104 °C; as for `O=Cc1ccc2ccc3c4ccccc4ccc3c2c1`, 177 to 178 °C.
The result for `O=C(O)c1cccc(OCCCc2cc(-c3ccc(C(F)(F)F)cc3)no2)c1` reads 133 to 134 °C; that for `O=c1[nH]c2cc(Cl)ccc2n1C1CCN(Cc2cccc(-c3ccc(Cl)cc3)n2)CC1`, 203 to 205 °C; that for `CC(CCC=CC(=O)O)C1CCC2C3CCC4CC(O)CCC4(C)C3CC(O)C12C` (stereo not given), 204 to 208 °C.
In the case of `O=CN1CCC(Oc2c(F)c(F)c(F)c(F)c2F)CC1`, the melting point was in the range of 32 to 34 °C.
As for `CCOC(=O)/C(=C\Nc1cccc(OC)c1)c1ccccc1`, the figure is 49 to 50 °C; as for `COc1cc(OCCCN(C)C)ccc1C(=O)NN`, 47 to 52 °C.
As for `Cn1cc(C(=O)Nc2ccccc2OC(F)(F)C(F)F)c(C(F)F)n1`, the figure is 117 to 119 °C; as for `CC1(C)CCC(C)(C)c2cc(C(=O)c3ccccc3C(=O)N(CCO)CCO)ccc21`, 116 °C; as for `CCn1c(Cl)c(C=NO)c(=O)n(CC)c1=O`, 92 to 94 °C.
The result for `COc1cc(CN2CCC(=O)C(C(c3ccccc3)c3ccccc3)C2)ccc1O` (stereo not given) reads 131 to 132 °C; that for `CCCCc1oc2ccc(-c3nc(C)no3)cc2c1C(=O)c1ccc(OCCCBr)cc1`, 85 to 87 °C; that for `O=C1c2c(ccc3c2OCCO3)S(=O)(=O)N1CCCCBr`, 135 to 136 °C.
As to `NC(=O)N1CCC(c2nn(-c3ccc(C(F)(F)F)cc3)c3cc(F)ccc23)CC1`, the melting point was in the range of 148 to 150 °C.
As for `O=C(NC/C=C\COc1cc(CN2CCCCC2)ccn1)c1ccc[nH]1`, the figure is 136 to 137 °C.
Molecule `O=C(O)c1cc(Cl)n2cnnc2c1` returned a melting point of 249 to 251 °C.
The result for `Cc1nc2ccc(NC3=NCCN3)c(Br)c2nc1C` reads 252 to 254 °C; that for `CSC1C(=O)Nc2c(Oc3ccccc3)cccc21` (stereo not given), 149 to 150 °C.
In turn, `C=C1CSC(=C(C#N)n2ccnc2)S1` displayed a melting point of 116 °C.
As for `Cc1ccsc1C(Cc1ccccc1NCN1C(=O)CCC1=O)N(C)C=O` (stereo not given), the figure is 160 to 164 °C; as for `CC(NC(=O)C(Cc1ccc(OCc2ccccc2)cc1)NC(=O)OC(C)(C)C)C(=O)NCC(=O)O` (stereo not drawn) (Boc-Tyr(Bn)-Ala-Gly-OH; configuration not given here), 104 to 107 °C.
As for `CCCCCCCCCCCCCCCCCCOc1ccc(OCCCc2ccccc2)c(C(=O)N(CC(=O)O)CC(=O)O)c1`, the figure is 101 to 102 °C; as for `CC(=NO)c1ccc(Cl)c(S(N)(=O)=O)c1`, 157 to 158 °C.
As for `CCOC(=O)C1=Cc2cc(C)cc(Br)c2NC1C(F)(F)F` (stereo not given), the figure is 122 to 124 °C; as for `CCc1nc2c(C)cc(C)nc2n1Cc1ccc2nc(-c3ccccc3NS(=O)(=O)C(F)(F)F)ccc2c1`, 252 °C; as for `CCc1cccc2c3c([nH]c12)C(C)(CC(=O)O)CCCC3` (stereo not given), 148 to 151 °C.
Turning to `COc1ccc(CCCO)cc1OCc1coc(/C=C/c2ccccc2)n1`, the melting point lay in the range of 126 to 128 °C.
On to `Nc1c(Cl)cc(C(O)CNCCCCCCOCCCc2ccc([N+](=O)[O-])cn2)cc1Cl` (stereo not given), for which the melting point is 60 to 61 °C.
The result for `COc1ccc(C2CC(n3ccnc3)c3ccccc3N2)cc1` (stereo not given) reads 156 to 158 °C; that for `Cc1ccc(-c2nc3ccccc3c(=O)[nH]2)cc1`, 239 to 241 °C.
Consider `CCc1cc(O)cc2c3c([nH]c12)C(CC)(CC(=O)OC)OCC3` (stereo not given), for which the melting point is 153 to 154 °C.
As for `COc1ccc(-c2c3c(cc4ccc5c(c24)OCO5)C(=O)OC3)cc1`, the melting point lay in the range of 217 to 219 °C.
As for `Clc1ccc(-c2ccc(-c3ccccc3)s2)s1`, the figure is 128 to 132 °C; as for `CCCON=C(C(=O)OCC)c1csc(N)n1`, 142 to 144 °C; as for `CCCn1c(=O)[nH]c(=S)c2[nH]c(C=Cc3ccccc3)nc21`, above 290 °C.
On to `COc1ccc(N2CC(=O)NC(=O)N2)cc1C`, for which the melting point fell in the range of 69 to 71 °C.
Turning to `CCS(=O)(=O)Nc1cc(-c2ncnc(OC)c2C#N)c(F)cc1C#N`, the melting point was in the range of 187 to 189 °C.
Take `O=C(Cl)Oc1cccc(NC(=O)C2CC2)c1`: the melting point came out at 94 °C.
As for `CCOC(=O)CCCN(C(=O)c1ccc(Cl)cc1)c1cccc2ccc(OC)cc12`, the figure is 92 to 94 °C.
Consider `Cc1[nH]c(=O)ccc1C(=O)c1ccccc1`, for which the melting point was in the range of 185 to 187 °C.
The result for `O=C(O)Cc1ccc(N2C(=O)C3CCCCC3C2=O)cc1` (stereo not given) reads 219 to 221 °C.
The result for `O=C1CCC(c2ccccc2)(c2ccccc2)CN1` reads 177 to 180 °C.
